# Experimental data reported in patent US5045458A, “Antibiotics PB-6042S” (Shionogi & Co., Ltd., priority 1988, dated 1991).
# Read-outs that look alike come from different tables or passages of the source.
# Columns and labels:
# [1] = system: P. asaccharolyticus ATCC14963; assay: MIC against anaerobic bacteria; assay type: cell-based; conditions: Peptoniphilus asaccharolyticus
# P. anaerobius B-38 = assay: MIC against anaerobic bacteria; assay type: cell-based; conditions: Peptostreptococcus anaerobius, B38
# P. prevotii ATCC9321 = assay: MIC against anaerobic bacteria; assay type: cell-based; conditions: Anaerococcus prevotii
# P. micros VPI5464-1 = assay: MIC against anaerobic bacteria; assay type: cell-based; conditions: Parvimonas micra, VPI54641
# [2] = system: S. constellatus ATCC27823; assay: MIC against anaerobic bacteria; assay type: cell-based; conditions: Streptococcus constellatus
# E. lentum II-1 = assay: MIC against anaerobic bacteria; assay type: cell-based; conditions: Eggerthella lenta, II1
# E. limosum ATCC8486 = assay: MIC against anaerobic bacteria; assay type: cell-based; conditions: Eubacterium limosum
# E. aerofaciens ATCC25986 = assay: MIC against anaerobic bacteria; assay type: cell-based; conditions: Collinsella aerofaciens
# P. acens ATCC11827 = assay: MIC against anaerobic bacteria; assay type: cell-based
# B. adolescentis JCM1250 = assay: MIC against anaerobic bacteria; assay type: cell-based; conditions: Bifidobacterium adolescentis; B. adolescentis JCM1250; read-out: MIC
# B. bifidum JCM1122 = assay: MIC against anaerobic bacteria; assay type: cell-based; conditions: Bifidobacterium bifidum; B. bifidum JCM1122; read-out: MIC
# B. longum ATCC15707 = assay: MIC against anaerobic bacteria; assay type: cell-based; conditions: Bifidobacterium longum, ATCC15707
# L. plantarum JCM1100 = assay: MIC against anaerobic bacteria; assay type: cell-based; conditions: Lactiplantibacillus plantarum; L. plantarum JCM1100; read-out: MIC
# L. ruminis ATCC27780 = assay: MIC against anaerobic bacteria; assay type: cell-based
# C. perfringens SAKAI = assay: microbe, parasite or virus in culture; assay type: cell-based; conditions: Clostridium perfringens
# C. perfringens ATCC13124 = assay: microbe, parasite or virus in culture; assay type: cell-based; conditions: Clostridium perfringens
# C. difficile ATCC17857 = assay: MIC against anaerobic bacteria; assay type: cell-based; conditions: Clostridioides difficile
# B. fragilis GM7000 = assay: MIC against anaerobic bacteria; assay type: cell-based; conditions: Bacteroides fragilis
# B. fragilis ATCC25285 = assay: MIC against anaerobic bacteria; assay type: cell-based; conditions: Bacteroides fragilis
# [3] = system: B. thetaiotaomicron WAL3304; assay: MIC against anaerobic bacteria; assay type: cell-based; conditions: Bacteroides thetaiotaomicron
# B. vulgatus ATCC29327 = assay: MIC against anaerobic bacteria; assay type: cell-based; conditions: Phocaeicola vulgatus
# B. distasonis JU-11-1 = assay: MIC against anaerobic bacteria; assay type: cell-based; conditions: Parabacteroides distasonis, JU111
# B. ovatus 2505 = assay: MIC against anaerobic bacteria; assay type: cell-based; conditions: Bacteroides ovatus
# [4] = system: B. melaninogenicus GAI0413; assay: MIC against anaerobic bacteria; assay type: cell-based; conditions: B. melaninogenicus GAI0413; read-out: MIC
# F. varium ATCC8501 = assay: MIC against anaerobic bacteria; assay type: cell-based; conditions: Fusobacterium varium
# F. necrophorum ATCC25286 = assay: MIC against anaerobic bacteria; assay type: cell-based; conditions: Fusobacterium necrophorum
# F. nucleatum ATCC25586 = assay: MIC against anaerobic bacteria; assay type: cell-based; conditions: Fusobacterium nucleatum
# F. mortiferum ATCC9817 = assay: MIC against anaerobic bacteria; assay type: cell-based; conditions: Fusobacterium mortiferum; F. mortiferum ATCC9817; read-out: MIC
# anaerobic bacteria = assay: antibacterial activity against anaerobic bacteria (summary); assay type: cell-based; conditions: in words
# [5] = filter paper electrophoresis and bioautography (acidic property); assay type: physicochemical
# Source text: Other physicochemical properties of PB-6042s in the form of sodium salt are listed below.
# S. aureus FDA JC-1 = assay: MIC against aerobic bacteria; conditions: Staphylococcus aureus, FDAJC1
# S. aureus SR14(R) = assay: MIC against aerobic bacteria; conditions: Staphylococcus aureus
# S. pyogenes C-203 = assay: MIC against aerobic bacteria; conditions: Streptococcus pyogenes, C203
# S. pneumoniae TYPE 1 = assay: MIC against aerobic bacteria; conditions: Streptococcus pneumoniae, TYPE1
# E. coli NIHJ JC-2 = assay: MIC against aerobic bacteria; conditions: Escherichia coli, NIHJJC2
# K. pneumoniae SR1 = assay: MIC against aerobic bacteria; conditions: Klebsiella pneumoniae
# P. vulgaris CN-329 = assay: MIC against aerobic bacteria; conditions: Proteus vulgaris, CN329
# P. aeruginosa A25619 = assay: MIC against aerobic bacteria; conditions: Pseudomonas aeruginosa
# V. parvula ATCC10790 = assay: MIC against anaerobic bacteria; assay type: cell-based; conditions: Veillonella parvula
# [6] = antibacterial activity and acidic property of reduced PB-6042A: antibacterial activity; assay type: cell-based; conditions: after H2/PtO2 reduction
# [7] = acidic property of reduced PB-6042A; conditions: after H2/PtO2 reduction
Compound,MIC (P. anaerobius B-38) [µg/mL],MIC (P. micros VPI5464-1) [µg/mL],MIC [2] [µg/mL],MIC (E. lentum II-1) [µg/mL],MIC (P. acens ATCC11827) [µg/mL],MIC (B. adolescentis JCM1250) [µg/mL],MIC (B. bifidum JCM1122) [µg/mL],MIC (B. longum ATCC15707) [µg/mL],MIC (L. plantarum JCM1100) [µg/mL],MIC (C. perfringens SAKAI) [µg/mL],MIC (C. perfringens ATCC13124) [µg/mL],MIC (C. difficile ATCC17857) [µg/mL],MIC [4] [µg/mL],MIC (F. varium ATCC8501) [µg/mL],MIC (F. nucleatum ATCC25586) [µg/mL],MIC (F. mortiferum ATCC9817) [µg/mL],growth inhibition of anaerobic bacteria (anaerobic bacteria),acidic property [5],MIC (S. aureus FDA JC-1) [µg/mL],MIC (S. aureus SR14(R)) [µg/mL],also measured
C=C1OC(=O)C(C(=O)CCCCCCCCCCC)=C1O [PB-6042C],0.78,0.78,0.78,3.13,0.78,0.78,6.25,3.13,6.25,3.13,3.13,0.78,6.25,> 100,12.5,25,"inhibit the growth of anaerobic bacteria, selectively",acidic substances,> 100,> 100,"MIC ([1]; ATCC14963): 3.13 µg/mL; MIC (P. prevotii ATCC9321; ATCC9321): 3.13 µg/mL; MIC (E. limosum ATCC8486; E. limosum ATCC8486, read-out: MIC): 1.56 µg/mL; MIC (E. aerofaciens ATCC25986; ATCC25986): 3.13 µg/mL; MIC (L. ruminis ATCC27780; L. ruminis ATCC27780, read-out: MIC): 1.56 µg/mL; MIC (B. fragilis GM7000; GM7000): 3.13 µg/mL; MIC (B. fragilis ATCC25285; B. fragilis ATCC25285, read-out: MIC): 1.56 µg/mL; MIC ([3]; WAL3304): 3.13 µg/mL; MIC (B. vulgatus ATCC29327; ATCC29327): 3.13 µg/mL; MIC (B. distasonis JU-11-1): 3.13 µg/mL; MIC (B. ovatus 2505; 2505): 3.13 µg/mL; MIC (F. necrophorum ATCC25286): 12.5 µg/mL; MIC (S. pyogenes C-203): 12.5 µg/mL; MIC (S. pneumoniae TYPE 1): 12.5 µg/mL; MIC (E. coli NIHJ JC-2): > 100 µg/mL; MIC (K. pneumoniae SR1): > 100 µg/mL; MIC (P. vulgaris CN-329): > 100 µg/mL; MIC (P. aeruginosa A25619): > 100 µg/mL"
C=C1OC(=O)C(C(=O)CCCC/C=C\CCCCCCC)=C1O [PB-6042D],1.56,0.78,1.56,3.13,1.56,6.25,6.25,3.13,6.25,3.13,3.13,1.56,12.5,> 100,25,> 100,"inhibit the growth of anaerobic bacteria, selectively",acidic substances,> 100,12.5,"MIC ([1]; P. asaccharolyticus ATCC14963, read-out: MIC): 6.25 µg/mL; MIC (P. prevotii ATCC9321; P. prevotii ATCC9321, read-out: MIC): 6.25 µg/mL; MIC (E. limosum ATCC8486; ATCC8486): 3.13 µg/mL; MIC (E. aerofaciens ATCC25986; E. aerofaciens ATCC25986, read-out: MIC): 6.25 µg/mL; MIC (L. ruminis ATCC27780): 3.13 µg/mL; MIC (V. parvula ATCC10790): > 100 µg/mL; MIC (B. fragilis GM7000; B. fragilis GM7000, read-out: MIC): 6.25 µg/mL; MIC (B. fragilis ATCC25285; ATCC25285): 3.13 µg/mL; MIC ([3]; B. thetaiotaomicron WAL3304, read-out: MIC): 6.25 µg/mL; MIC (B. vulgatus ATCC29327; B. vulgatus ATCC29327, read-out: MIC): 12.5 µg/mL; MIC (B. distasonis JU-11-1; B. distasonis JU-11-1, read-out: MIC): 12.5 µg/mL; MIC (B. ovatus 2505; B. ovatus 2505, read-out: MIC): 12.5 µg/mL; MIC (S. pyogenes C-203): 12.5 µg/mL; MIC (S. pneumoniae TYPE 1): 12.5 µg/mL; MIC (E. coli NIHJ JC-2): > 100 µg/mL; MIC (K. pneumoniae SR1): > 100 µg/mL; MIC (P. vulgaris CN-329): > 100 µg/mL; MIC (P. aeruginosa A25619): > 100 µg/mL"
CCCCCCCCCC(=O)C1=C(O)C(C)OC1=O (stereo not drawn) [reduced product],,,,,,,,,,,,,,,,,,,,,antibacterial activity of reduced product [6]: maintained antibacterial activity; acidic property of reduced product [7]: maintained antibacterial activity and acidic property
